Source: patent US20240158446A1, “CYCLIC COMPOUND HAVING SELECTIVE INHIBITORY ACTION ON KRAS OVER HRAS AND NRAS” (CHUGAI SEIYAKU KABUSHIKI KAISHA, priority 2021, published 2024)

Assays:
[1] = target: GDP-bound KRAS wild-type protein (Homo sapiens, UniProt P01116); experiment: Binding to KRAS by surface plasmon resonance (SPR), Single Cycle Kinetics; details: SPR, Single Cycle Kinetics, GDP-bound KRAS wild-type protein; read-out: KRAS KD
[2] = target: GDP-bound NRAS wild-type protein (Homo sapiens, UniProt P01111); experiment: Binding to NRAS by surface plasmon resonance (SPR), Single Cycle Kinetics; details: SPR, GDP-bound NRAS wild-type protein vs GDP-bound KRAS wild-type protein
Sequence of GDP-bound NRAS wild-type protein (P01111 whole entry): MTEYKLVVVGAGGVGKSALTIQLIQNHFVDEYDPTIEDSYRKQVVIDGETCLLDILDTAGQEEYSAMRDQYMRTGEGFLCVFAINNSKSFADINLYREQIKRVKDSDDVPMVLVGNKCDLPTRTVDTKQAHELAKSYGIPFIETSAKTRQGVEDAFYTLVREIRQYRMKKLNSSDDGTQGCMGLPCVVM

[3] = target: GDP-bound HRAS wild-type protein (Homo sapiens, UniProt P01112); experiment: Binding to HRAS by surface plasmon resonance (SPR), Single Cycle Kinetics; details: SPR, GDP-bound HRAS wild-type protein vs GDP-bound KRAS wild-type protein
Sequence of GDP-bound HRAS wild-type protein (P01112 whole entry): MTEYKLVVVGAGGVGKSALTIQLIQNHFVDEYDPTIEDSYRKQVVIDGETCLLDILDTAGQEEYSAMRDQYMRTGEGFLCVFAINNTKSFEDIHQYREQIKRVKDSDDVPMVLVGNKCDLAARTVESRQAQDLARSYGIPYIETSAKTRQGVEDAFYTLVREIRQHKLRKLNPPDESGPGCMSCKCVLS

[4] = tested on: human lung cancer strain NCI-H441;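 also: cell proliferation inhibition after four days measured by CellTiter-Glo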

Sequence of GDP-bound KRAS wild-type protein (P01116 whole entry): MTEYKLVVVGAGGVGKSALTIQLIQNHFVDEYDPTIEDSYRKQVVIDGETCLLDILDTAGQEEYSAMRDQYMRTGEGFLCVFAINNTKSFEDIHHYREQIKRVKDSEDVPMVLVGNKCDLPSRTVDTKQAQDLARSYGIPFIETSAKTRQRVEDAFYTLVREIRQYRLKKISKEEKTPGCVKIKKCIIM

Row | Kd [1] [nM] | IC50 [4] [nM] | Structure (SMILES) | NRAS/KRAS (ratio of KD value for NRAS to KD value for KRAS) [2] | HRAS/KRAS (ratio of KD value for HRAS to KD value for KRAS) [3]
1 | 0.11 | 25.4 | CCO[C@@H]1C[C@H]2C(=O)NC3(CC(C)(C)C3)C(=O)N(C)[C@@H](C3CCCC3)C(=O)N(C)[C@H](C(=O)N(C)CC)CC(=O)N(C)[C@@H](COC)C(=O)N[C@@H]([C@@H](C)CC)C(=O)N(C)CC(=O)N(C)[C@H]3C/C=C\CCN(C3=O)[C@@H](Cc3ccc(C)cc3)C(=O)N(C)CC(=O)N[C@@H](CCc3ccc(C(F)(F)F)c(OC)c3)C(=O)N2C1 [PP2392] | A (a compound having 10 or more and less than 20 is denoted as A) | A (a compound having 10 or more and less than 20 is denoted as A)
2 | 0.12 | 28.2 | CCOC[C@H]1C(=O)N[C@@H]([C@@H](C)CC)C(=O)N(C)CC(=O)N(C)[C@H]2C/C=C\CCN(C2=O)[C@@H](Cc2ccc(C)cc2)C(=O)N(C)CC(=O)N[C@@H](CCc2ccc(C(F)(F)F)c(OC)c2)C(=O)N2C[C@H](C)C[C@H]2C(=O)NC2(CC(C)(C)C2)C(=O)N(C)[C@@H](C2CCCC2)C(=O)N(C)[C@H](C(=O)N(C)C)CC(=O)N1C [PP2393] | A (a compound having 10 or more and less than 20 is denoted as A) | A (a compound having 10 or more and less than 20 is denoted as A)
3 | 0.12 | 8.3 | CCOC[C@H]1C(=O)N[C@@H]([C@@H](C)CC)C(=O)N(C)CC(=O)N(C)[C@H]2C/C=C\CCN(C2=O)[C@@H](Cc2ccc(C)cc2)C(=O)N(C)CC(=O)N[C@@H](CCc2ccc(C(F)(F)F)c(Cl)c2)C(=O)N2C[C@@H](C)C[C@H]2C(=O)NC2(CC(C)(C)C2)C(=O)N(C)[C@@H](C2CCCC2)C(=O)N(C)[C@H](C(=O)N(C)C)CC(=O)N1C [PP2394] | A (a compound having 10 or more and less than 20 is denoted as A) | B (a compound having 3 or more and less than 10 is denoted as B)
4 | 0.072 | 6.3 | CCOC[C@H]1C(=O)N[C@@H]([C@@H](C)CC)C(=O)N(C)CC(=O)N(C)[C@H]2C/C=C\CCN(C2=O)[C@@H](Cc2ccc(C)cc2)C(=O)N(C)CC(=O)N[C@@H](CCc2ccc(C(F)(F)F)c(Cl)c2)C(=O)N2C[C@H](OCC)C[C@H]2C(=O)NC2(CC(C)(C)C2)C(=O)N(C)[C@@H](C2CCCC2)C(=O)N(C)[C@H](C(=O)N(C)C)CC(=O)N1C [PP2395] | A (a compound having 10 or more and less than 20 is denoted as A) | B (a compound having 3 or more and less than 10 is denoted as B)
5 | 0.069 | 4.1 | CCO[C@@H]1C[C@H]2C(=O)NC3(CC(C)(C)C3)C(=O)N(C)[C@@H](C3CCCC3)C(=O)N(C)[C@H](C(=O)N(C)CC)CC(=O)N(C)[C@@H](COC)C(=O)N[C@@H]([C@@H](C)CC)C(=O)N(C)CC(=O)N(C)[C@H]3C/C=C\CCN(C3=O)[C@@H](Cc3ccc(C)cc3)C(=O)N(C)CC(=O)N[C@@H](CCc3cc(F)c(C(F)(F)F)c(F)c3)C(=O)N2C1 [PP2396] | A (a compound having 10 or more and less than 20 is denoted as A) | A (a compound having 10 or more and less than 20 is denoted as A)
6 | 0.051 | 4.7 | CCOC[C@H]1C(=O)N[C@@H]([C@@H](C)CC)C(=O)N(C)CC(=O)N(C)[C@H]2C/C=C\CCN(C2=O)[C@@H](Cc2ccc(C)cc2)C(=O)N(C)CC(=O)N[C@@H](CCc2cc(F)c(C(F)(F)F)c(F)c2)C(=O)N2C[C@H](OCC)C[C@H]2C(=O)NC2(CC(C)(C)C2)C(=O)N(C)[C@@H](C2CCCC2)C(=O)N(C)[C@H](C(=O)N(C)C)CC(=O)N1C [PP2397] | A (a compound having 10 or more and less than 20 is denoted as A) | A (a compound having 10 or more and less than 20 is denoted as A)
7 | 0.23 | 11.4 | CCO[C@@H]1C[C@H]2C(=O)NC3(CC(C)(C)C3)C(=O)N(C)[C@@H](C3CCCC3)C(=O)N(C)[C@H](C(=O)N(CC)CC)CC(=O)N(C)[C@@H](COC)C(=O)N[C@@H]([C@@H](C)CC)C(=O)N(C)CC(=O)N(C)[C@H]3C/C=C\CCN(C3=O)[C@@H](Cc3ccc(C)cc3)C(=O)N(C)CC(=O)N[C@@H](CCc3ccc(C(F)(F)F)c(OC)c3)C(=O)N2C1 [PP2398] | A (a compound having 10 or more and less than 20 is denoted as A) | A (a compound having 10 or more and less than 20 is denoted as A)
8 | 0.31 | 7.7 | CC[C@H](C)[C@@H]1NC(=O)[C@H](COC)N(C)C(=O)C[C@@H](C(=O)N(CC)CC)N(C)C(=O)[C@H](C2CCCC2)N(C)C(=O)C2(CC(C)(C)C2)NC(=O)[C@@H]2C[C@H](C)CN2C(=O)[C@H](CCc2ccc(C(F)(F)F)c(Cl)c2)NC(=O)CN(C)C(=O)[C@H](Cc2ccc(C)cc2)N2CC/C=C\C[C@@H](C2=O)N(C)C(=O)CN(C)C1=O [PP2399] | AA (a compound having 20 or more is denoted as AA) | A (a compound having 10 or more and less than 20 is denoted as A)
9 | 0.2 | 5.8 | CCO[C@@H]1C[C@H]2C(=O)NC3(CC(C)(C)C3)C(=O)N(C)[C@@H](C3CCCC3)C(=O)N(C)[C@H](C(=O)N(CC)CC)CC(=O)N(C)[C@@H](COC)C(=O)N[C@@H]([C@@H](C)CC)C(=O)N(C)CC(=O)N(C)[C@H]3C/C=C\CCN(C3=O)[C@@H](Cc3ccc(C)cc3)C(=O)N(C)CC(=O)N[C@@H](CCc3ccc(C(F)(F)F)c(Cl)c3)C(=O)N2C1 [PP2400] | A (a compound having 10 or more and less than 20 is denoted as A) | A (a compound having 10 or more and less than 20 is denoted as A)
10 | 0.12 | 5.3 | CCOC[C@H]1C(=O)N[C@@H]([C@@H](C)CC)C(=O)N(C)CC(=O)N(C)[C@H]2C/C=C\CCN(C2=O)[C@@H](Cc2ccc(C)cc2)C(=O)N(C)CC(=O)N[C@@H](CCc2ccc(C(F)(F)F)c(Cl)c2)C(=O)N2C[C@H](OCC)C[C@H]2C(=O)NC2(CC(C)(C)C2)C(=O)N(C)[C@@H](C2CCCC2)C(=O)N(C)[C@H](C(=O)N(C)CC)CC(=O)N1C [PP2401] | A (a compound having 10 or more and less than 20 is denoted as A) | A (a compound having 10 or more and less than 20 is denoted as A)
11 | 0.092 | 10.6 | CCCOC[C@H]1C(=O)N[C@@H]([C@@H](C)CC)C(=O)N(C)CC(=O)N(C)[C@H]2C/C=C\CCN(C2=O)[C@@H](Cc2ccc(C)cc2)C(=O)N(C)CC(=O)N[C@@H](CCc2ccc(C(F)(F)F)c(Cl)c2)C(=O)N2C[C@H](OCC)C[C@H]2C(=O)NC2(CC(C)(C)C2)C(=O)N(C)[C@@H](C2CCCC2)C(=O)N(C)[C@H](C(=O)N(C)C)CC(=O)N1C [PP2402] | A (a compound having 10 or more and less than 20 is denoted as A) | A (a compound having 10 or more and less than 20 is denoted as A)
12 | 0.22 | 7.2 | CCO[C@@H]1C[C@H]2C(=O)NC3(CC(C)(C)C3)C(=O)N(C)[C@@H](C3CCCC3)C(=O)N(C)[C@H](C(=O)N(CC)CC)CC(=O)N(C)[C@@H](COC)C(=O)N[C@@H]([C@@H](C)CC)C(=O)N(C)CC(=O)N(C)[C@H]3C/C=C\CCN(C3=O)[C@@H](Cc3ccc(C)cc3)C(=O)N(C)CC(=O)N[C@@H](CCc3cc(F)c(C(F)(F)F)c(F)c3)C(=O)N2C1 [PP2403] | A (a compound having 10 or more and less than 20 is denoted as A) | A (a compound having 10 or more and less than 20 is denoted as A)
13 | 0.09 | 4.1 | CCOC[C@H]1C(=O)N[C@@H]([C@@H](C)CC)C(=O)N(C)CC(=O)N(C)[C@H]2C/C=C\CCN(C2=O)[C@@H](Cc2ccc(C)cc2)C(=O)N(C)CC(=O)N[C@@H](CCc2cc(F)c(C(F)(F)F)c(F)c2)C(=O)N2C[C@H](OCC)C[C@H]2C(=O)NC2(CC(C)(C)C2)C(=O)N(C)[C@@H](C2CCCC2)C(=O)N(C)[C@H](C(=O)N(C)CC)CC(=O)N1C [PP2404] | A (a compound having 10 or more and less than 20 is denoted as A) | A (a compound having 10 or more and less than 20 is denoted as A)
14 | 0.31 | 8.6 | CCOC[C@H]1C(=O)N[C@@H]([C@@H](C)CC)C(=O)N(C)CC(=O)N(C)[C@H]2C/C=C\CCN(C2=O)[C@@H](Cc2ccc(C)cc2)C(=O)N(C)CC(=O)N[C@@H](CCc2ccc(C(F)(F)F)c(OC)c2)C(=O)N2C[C@@H](C)C[C@H]2C(=O)NC2(CC(C)(C)C2)C(=O)N(C)[C@@H](C2CCCC2)C(=O)N(C)[C@H](C(=O)N(CC)CC)CC(=O)N1C [PP2405] | A (a compound having 10 or more and less than 20 is denoted as A) | A (a compound having 10 or more and less than 20 is denoted as A)
15 | 0.29 | 21.3 | CCOC[C@H]1C(=O)N[C@@H]([C@@H](C)CC)C(=O)N(C)CC(=O)N(C)[C@H]2C/C=C\CCN(C2=O)[C@@H](Cc2ccc(C)cc2)C(=O)N(C)CC(=O)N[C@@H](CCc2ccc(C(F)(F)F)c(OC)c2)C(=O)N2C[C@H](OCC)C[C@H]2C(=O)NC2(CC(C)(C)C2)C(=O)N(C)[C@@H](C2CCCC2)C(=O)N(C)[C@H](C(=O)N(CC)CC)CC(=O)N1C [PP2406] | A (a compound having 10 or more and less than 20 is denoted as A) | A (a compound having 10 or more and less than 20 is denoted as A)
